Experimental data reported in patent US10857112B2, “Small molecule inhibitors of RNA binding motif (RBM) proteins for the treatment of acute cellular injury” (University of Pittsburgh—Of the Commonwealth System of …, priority 2012, dated 2020).

What was measured:
[1] = test system: primary rat cortical neurons; assay: STS injury, neuronal viability and cytotoxicity
Procedure: At D.I.V. 11, ½ media was collected (conditioned media) and mixed with an equal volume fresh neurobasal media (to make the 24 hour treatment media). STS was prepared at the desired concentration in treatment media, with or without experimental drugs (AQ2S or LY294002). The remaining growth maintenance media was replaced with 100 μL, of treatment media per well of a 96-well plate (or 2 mL for a six-well plate) for 24 hours.
The LDH Cytotoxicity Assay Kit II was purchased from Abcam (Cambridge, Mass., USA). Neurons were cultured in 96-well format and subjected to STS injury ±AQ2S for 24 hours (in 100 μL, total media volume). At 23 hours maximum LDH release (positive control) was prepared by adding 10 μL, cell lysis reagent directly to a few non-injured wells (i.e., no STS or AQ2S). At the end of the 24 hour injury period, 80 μL, of media was transferred to a new 96-well plate. Plates were spun at ˜500 g for 5 minutes. 10 μL, of cell culture treatment media was added to a new black-walled plate and advanced WST detection reagent added. The mix was incubated for ˜15 minutes and absorbance measured (OD 450 nm). Fresh culture media was used as a negative control. Cytotoxicity was calculated using the standard formula: cytotoxicity %=(sample LDH−negative-control LDH)/(maximum LDH release−negative-control LDH)×100.

[2] = test system: primary rat neurons, astrocytes, and cerebral endothelial cells; conditions: cited from earlier work
[3] = test system: primary rat cortical neurons; assay: AQ2S alone on fluorescent and luminescent viability assays (luciferase interference); assay type: cell-based
Procedure: To test if AQ2S mediated inhibition of caspase3/7 was artifact, the effect of different AQ2S concentrations on 2 different cell viability tests were compared (one test fluorometric and the other luminescent). AQ2S was incubated at the indicated concentrations for 24 hours. After 24 hours, the cell viability reagent was added and cell survival assayed. […] Finally, to replicate the exact experimental conditions used in injury studies, neurons were first incubated with the CellTiter Blue reagent for 2 hours. Subsequently, the viability-GLO reagent was added for 1 hour and luminescence measured (i.e. viability reagents were mixed together; FIG. 11C).

[4] = molecular target: T1, RBM5 (Homo sapiens, UniProt P52756); conditions: cited from earlier work
T1 sequence (P52756 181-210 limits assumed): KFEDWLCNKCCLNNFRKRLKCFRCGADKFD

[5] = test system: primary rat cortical neurons; assay: Stretch injury (in vitro TBI), LDH release and MTT metabolism; assay type: cell-based; conditions: 24 hours after injury
Procedure: Rat cortical neurons are isolated from E16 embryos, and plated on silicone membranes (with defined elastic properties) held in a custom made stainless steel chamber. DIV 7-9 neurons are subjected to a (computer controlled) preset stretch injury; strain rate 10 s^−1 and 50% membrane deformation. AQ2S or DMSO (vehicle control) was added before (pre-treatment) or after post-treatment) injury, Cell death was assayed ˜24 hours after injury by measuring 1) extracellular LDH in the culture media (released from dying/dead cells), 2) caspase-3/7 activation (a protease involved in execution of cell death), and 3) MTT metabolism (a reagent metabolized by living cells).
LDH is released by dying or injured cells. Primary rat cortical neurons were grown on a custom made stretch-injury device (An in vitro model of TBI). Neurons were pre-treated with 75 μM AQ2S or vehicle only (DMSO control) for 30 minutes, and subjected to a defined stretch injury. 24 hours after injury LDH levels were measured. […] Data was analyzed using a T-test; ***p<0.0001. […]
(3-(4,5-Dimethylthiazol-2-yl)-2,5-diphenyltetrazolium bromide; MTT) is metabolized in living but not dying cells. […] MTT metabolism was measured 24 hours after injury. […] Data was analyzed using ANOVA and Fisher LSD post-hoc test. […]

[6] = test system: caspase-9; assay: STS-induced caspase-9 activity in neurons; assay type: cell-based, rat; conditions: 150 nM STS 24 hours; co-treatment 75 μM
[7] = test system: Human derived myocardial heart cells; assay: STS injury in human heart cells, viability (CellTiter Blue); assay type: cell-based; conditions: 24 hour co-treatment; 500 nM or 1 μM STS, 125 μM AQ2S
Procedure: Human derived myocardial heart cells were seeded onto 96-well plates. 24 hours later cells were injured with STS.
Optimal cell death conditions were established in heart cells. Heart cells were treated with STS at increasing doses for 24 hours (FIG. 28A). […] Heart cells were treated with 500 nM STS+/−125 μM AQ2S or 1 μM STS+/−125 μM AQ2S for 24 hours. Cell viability was measured 24 hours later and expressed as relative fluorescent units (RFU). […] Data were analyzed by ANOVA (p<0.0001); Fisher LSD post-hoc test. * indicates p<0.05. Graphs show Mean+SEM.

[8] = test system: caspase-3; assay: Western blot of cleaved caspase-3 and caspase-3 substrates after STS; assay type: cell-based, rat; conditions: 125 μM
Procedure: Caspase-3 inhibition was confirmed by biochemical analysis. Protein samples harvested from neurons incubated with 125 μM AQ2S and 500 nM STS for 6 hours were run on western blot. Consistent with caspase-3 inhibition, cleaved (i.e., activated) capase-3 was reduced in AQ2S-treated neurons (FIG. 8D). Finally, the inhibition of caspase-3 by AQ2S was confirmed biochemically via western blot analysis of substrate cleavage products. Poly ADP ribose polymerase is a classic caspase-3 substrate. The parent protein migrates at ˜116 KDa on SDS-PAGE. An 89-KDa product is produced upon cleavage by caspase-3. Cortical neurons were subjected to 250 nM STS for 6 hours.
Neurons used for Western blot analysis for grown in 6-well plates. Briefly, neurons were treated with experimental compounds for the indicated time/conditions. At the end of each experiment, neurons were washed in ice cold PBS and harvested in 65 μL RIPA buffer containing protease inhibitors, phosphatase inhibitors, and EDTA. Extracts were collected in 0.5 mL tubes and sonicated for 20-30 seconds. Cell extracts were then spun at 4° C./16,000 g/10 minutes and stored at −80° C. until use. Frozen extracts were thawed on ice and protein concentration measured using the BCA assay (PIERCE). […] of sample protein was loaded per well of a 7.5% SDS precast gel (Biorad), and run for 30 minutes to 1 hour at 200 V. Kaleidoscope protein standards (Biorad) were run parallel to neuron extracts. Proteins were then transferred to PDVF membranes (run at 100 V/4° C./1.5 hours). PDVF membranes were washed once in tris buffered saline (TBS) and blocked for 1 hour in tris buffered saline/tween-20 with 7.5% nonfat milk (TBS-T/milk). Blots were incubated overnight at 4° C. with primary antibodies in TBS-T/milk. Cell Signaling Technology: phospho-AKT473, AKT Total, phospho-ERK1/2, ERK Total, cleavage caspase-3. Santa Cruz Antibodies: NF-κB p50 subunit, NF-κB p65 subunit, and beta actin. Calbiochem: 4-HNE antibody. Blots were washed 3 times (5 minutes each) with TBS, and incubated with secondary antibodies for 2 hours. Invitrogen: goat anti-rabbit or goat anti-mouse. Blots were washed 3 times (5 minutes each) with TBS, and incubated for 1 minute in HRP detection solution (Amersham). Films were exposed to blots and developed (SRX-101A, Konica Minolta Medical & Graphic Inc.). Re-probed blots (e.g. beta actin, AKT total, ERK total) were stripped in western blot stripping buffer (Fischer Scientific) for 10 minutes, washed once with TBS, re-blocked in TBS-T/milk for 1 hour, and incubated overnight with new primary antibody. Films were scanned (EPSON GT 20,000), and densitometry performed using UN-SCAN-IT software (Silk Scientific).

[9] = 150 nM STS 24 hours, co-treatment 75 μM

O=C1c2ccccc2C(=O)c2cc(S(=O)(=O)O)ccc21 [AQ2S, anthraquinone-2-sulfonic acid]
STS injury, LDH release [1, 9]: significantly reduced 24 hour STS injury | STS injury, cellular ATP levels (GLO-Viability Assay) [1, 9]: significantly reduced 24 hour STS injury | STS injury, live-cell protease activity (CellTiter-Fluor) [1, 9]: significantly reduced 24 hour STS injury | STS injury, resazurin metabolism (CellTiter Blue) [1, 9]: significantly reduced 24 hour STS injury | reduction in viability compared with non-injured controls ([1]; 250 nM STS 24 hours, AQ2S-treated neurons): 17.6% | cell death after STS ([1]; 250 nM STS 24 hours, co-treatment 75 or 125 μM): significantly reduced cell death | cell viability, comparison of neuroprotectants ([1]; 250 nM STS co-administered 24 hours): increased cell viability | neuronal viability, high dose STS ([1]; 500 nM STS 24 hours, co-treatment 125 μM and 150 μM): significantly (but only slightly) increased neuronal viability | baseline viability or cytotoxicity ([1]; compound alone, no STS, 75 μM, 24 h): did not significantly alter baseline viability or cytotoxicity | concentration of maximal protection ([1]; neuroprotection in neuron injury assays): 75 to 125 µM | superoxide anion (O2^−) levels ([2]; 980 μM, over 60 minute): significantly upregulated superoxide anion (O2^−) levels | toxicity ([2]; 980 μM): lack of toxicity | cell viability ([2]; 5000 μM): 50% | decrease in luminescent signal compared to DMSO controls ([3]; CellTiter Blue and viability-GLO reagents combined): 13-17% | viability, fluorometric CellTiter Blue assay ([3]; compound alone 24 hours, all concentrations used): none of the AQ2S concentrations used inhibited viability below control levels | targeting of zinc-finger domain in RBM5 ([4]; Farina et al. 2011): selective and potent target of the zinc-finger domain in pro-apoptotic RBM5 and inhibits its function | IC50 ([4]; read-out: IC50 of AQ2S to inhibit RBM5): ~82 µM | stretch injury induced LDH release (neuronal death) ([5]; 75 μM pre-treated 30 minutes): significantly reduced neuronal death | MTT metabolism after stretch injury ([5]; 30 minutes before or 30 minutes after injury): increased by pre- or post-treatment with AQ2S | caspase-9 activity [6]: significantly reduced baseline and injury activity levels | heart cell viability after STS [7]: increased viability | 89-KDa PARP cleavage product, western blot ([8]; 250 nM STS 6 hours): significantly reduced the formation of the 89-KDa species | NF-κB p50 subunit protein levels ([8]; 250 nM STS 17 hours): No change | NF-κB p65 subunit protein levels ([8]; 250 nM STS 17 hours): increased | cleaved (activated) caspase-3, western blot ([8]; 500 nM STS 6 hours): reduced
